Measured values published in ChEMBL document CHEMBL1158177, “Synthesis and structure guided evaluation of estrogen agonist and antagonist activities of some new tetrazolyl indole derivatives” (2008).
The source made the active and inactive calls. The rule behind the calls is not given here.

Columns and labels:
Rattus norvegicus [1] = assay: Estrogenic activity in ovariectomised Sprague-Dawley rat assessed as uterine weight gain at 10 mg/kg, po once daily for three days after 24 hrs of last treatment relative to control; format: functional
Rattus norvegicus [2] = assay: Antiimplantation activity in Sprague-Dawley rat uterus at 10 mg/kg, po for 7 days measured on day 11; format: functional
[3] = target: T1, Estrogen receptor (Rattus norvegicus) (UniProt P06211); assay: Displacement of [3H]estradiol from estrogen receptor in uterine cytosol of estradiol primed rat relative to estradiol; settings: Uterus
T1 sequence (whole entry): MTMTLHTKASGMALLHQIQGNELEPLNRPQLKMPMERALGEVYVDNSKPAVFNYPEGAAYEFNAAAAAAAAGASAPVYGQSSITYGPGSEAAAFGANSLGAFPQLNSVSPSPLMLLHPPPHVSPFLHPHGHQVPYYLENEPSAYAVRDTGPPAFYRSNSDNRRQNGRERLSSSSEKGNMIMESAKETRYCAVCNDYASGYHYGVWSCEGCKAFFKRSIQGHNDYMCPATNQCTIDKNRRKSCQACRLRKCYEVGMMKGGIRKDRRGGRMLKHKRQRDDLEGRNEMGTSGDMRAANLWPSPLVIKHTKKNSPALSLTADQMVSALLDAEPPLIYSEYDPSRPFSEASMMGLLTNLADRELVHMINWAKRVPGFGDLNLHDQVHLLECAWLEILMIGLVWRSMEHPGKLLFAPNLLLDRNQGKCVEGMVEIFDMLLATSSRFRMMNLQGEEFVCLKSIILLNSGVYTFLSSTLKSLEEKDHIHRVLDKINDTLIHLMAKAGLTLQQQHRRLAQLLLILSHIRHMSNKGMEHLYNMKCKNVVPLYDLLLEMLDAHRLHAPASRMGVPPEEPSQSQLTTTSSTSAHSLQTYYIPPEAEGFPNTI

Rattus norvegicus [4] = assay: Antiestrogenic activity in ovariectomised Sprague-Dawley rat assessed as inhibition of estradiol-induced uterine weight at 10 mg/kg, po once daily for three days measured on day 4 relative to control; format: functional
Rattus norvegicus [5] = assay: Antiimplantation activity in Sprague-Dawley rat uterus at 5 mg/kg, po for 7 days measured on day 11; format: functional

| Compound | Activity (Rattus norvegicus [1]) | Activity (Rattus norvegicus [2]) | RBA [3] | inhibition in vivo at 10 mg/kg (Rattus norvegicus [4]) | Activity (Rattus norvegicus [5]) |
| --- | --- | --- | --- | --- | --- |
| c1ccc2c(c1)SCCc1c-2n(CCc2nnnn2CCN2CCCC2)c2ccccc12 | 39% | inactive | < 0.001% | – | – |
| c1ccc2c(c1)SCCc1c-2n(CCc2nnn(CCN3CCCCC3)n2)c2ccccc12 | – | inactive | 0.0125% | 6% | – |
| c1ccc2c(c1)OCCc1c-2n(CCc2nnnn2CCN2CCCC2)c2ccccc12 | 40% | inactive | < 0.001% | – | – |
| c1ccc2c(c1)CCCc1c-2n(CCc2nnn(CCN3CCCC3)n2)c2ccccc12 | 33% | 100% | 0.16% | 3% | 67% |
| c1ccc2c(c1)CCCc1c-2n(CCc2nnnn2CCN2CCCCC2)c2ccccc12 | 40% | inactive | < 0.001% | – | – |
| c1ccc2c(c1)OCCc1c-2n(CCc2nnn(CCN3CCCCC3)n2)c2ccccc12 | 28% | inactive | 0.011% | – | – |
| c1ccc2c(c1)SCCc1c-2n(CCc2nnn(CCN3CCCC3)n2)c2ccccc12 | 25% | inactive | < 0.001% | 1% | – |
| c1ccc2c(c1)CCCc1c-2n(CCc2nnn(CCN3CCCCC3)n2)c2ccccc12 | – | inactive | 0.011% | – | – |
| c1ccc2c(c1)OCCc1c-2n(CCc2nnnn2CCN2CCCCC2)c2ccccc12 | 44% | inactive | < 0.001% | 1% | – |
| c1ccc2c(c1)OCCc1c-2n(CCc2nnn(CCN3CCCC3)n2)c2ccccc12 | 29% | inactive | 0.04% | 12% | – |
| c1ccc2c(c1)CCCc1c-2n(CCc2nnnn2CCN2CCCC2)c2ccccc12 | 61% | 67% | 0.0125% | 7% | – |
| c1ccc2c(c1)SCCc1c-2n(CCc2nnnn2CCN2CCCCC2)c2ccccc12 | 23% | inactive | < 0.001% | 2% | – |
